Numbered stars: 1 amine (or outer) side, 2 acyl side, 3 side chain; on linkers, the order of the positions; unused ones are H or OH. Bridge positions count the residues as written; N and C are the ends. Square brackets hold non-standard residues; d marks the D form. Primed or numbered codes have the meaning given here. Peptide text beside a SMILES is read from it. Tyr(Me)″ = O-methyl-tyrosine (4-methoxy-phenylalanine), COc1ccc(C[C@H](N[*:1])C(=O)[*:2])cc1; 1Nal = N[C@@H](Cc1cccc2ccccc12)C(=O)O; 2Nal = N[C@@H](Cc1ccc2ccccc2c1)C(=O)O; Cit = NC(=O)NCCC[C@H](N)C(=O)O; Orn = NCCC[C@H](N)C(=O)O; Aib = CC(C)(N)C(=O)O

These results are taken from patent US20260250322A1, “NEW PEPTIDES AS SELECTIVE IL-23 RECEPTOR INHIBITORS” (SANOFI, priority 2023, published 2026).

A short description of data set [1]: Protease stability in simulated intestinal fluids (FaSSIF). Particulars: 37° C.; for FaSSIF 0 (min), remaining percentage of peptide compound: 0 min (set to 100%), 1 μM; for remaining at 1 h, 1 μM / remaining at 2 h, 1 μM / remaining at 4 h, 1 μM: simulated intestinal fluid (FaSSIF), protease stability; for remaining at 1 h, 1 μM: 60 min, read-out: FaSSIF 60 (min), remaining percentage of peptide compound; for remaining at 2 h, 1 μM: 120 min, read-out: FaSSIF 120 (min), remaining percentage of peptide compound; for remaining at 4 h, 1 μM: 240 min, read-out: FaSSIF 240 (min), remaining percentage of peptide compound. It is filed as in vitro ADME. As for the experimental part:
Studies were carried out in simulated intestinal fluid (SIF) and simulated gastric fluid (SGF) to evaluate gastric stability of the peptide compounds of the disclosure. […]
Similarly, the term “Pancreatin-SIF” refers to a solution of simulated intestinal fluid containing pancreatin whereas “SIF-media” refers to a solution of simulated intestinal fluid without pancreatin. Pancreatin-SIF was prepared by dissolving 1 mg Pancreatin (MP Biomedicals) in 10 mL SIF media concentrate (ProSense). […]
To 76 μL of the Pepsin-SGF buffer, 4 μL of the 20 µM compound stock solution were added and incubated at 37° C. At each timepoint (0, 60, 120 and 240 minutes) the reaction was quenched with addition of 80 μL Ethanol (0.1% HCOOH). The samples were centrifuged for 20 minutes and an aliquot of the supernatant 100 μL were transferred to a LoBind-MTP plate and analyzed by LCMS/MS. The peak area response was calculated at each time point for each test compound. As internal reference, the peak area response of the same test compound at TO was calculated. The percent remaining at each timepoint was calculated based on the peak area response ratio of the test compound at TO. Time 0 was set to 100%, and all later timepoints were calculated relative to time 0.

The test system of data set [2] is IL-23 induced STAT3 signaling. Kind of data set: Inhibition of IL-23 induced STAT3 signaling in HEK-Blue IL-23 cells (SEAP reporter). The data set is classed as cell-based. Particulars: human IL-23 0.25 ng/ml, read-out: Inhibition of IL-23 induced pSTAT3 (IC50 nM). The procedure, abridged:
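HEK-Blue IL-23 cells (10,000/well) preincubated 60 min at 37 °C with serially diluted compound, then stimulated overnight with human IL-23 (0.25 ng/ml final). STAT3-driven SEAP in supernatant read with QUANTI-Blue after 45 min at room temperature, OD 620-655 nm; dose-response fitted.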

The next data set addresses T1, human IL-23R (Homo sapiens, UniProt Q5VWK5).
T1 sequence (Q5VWK5 24-355 limits assumed): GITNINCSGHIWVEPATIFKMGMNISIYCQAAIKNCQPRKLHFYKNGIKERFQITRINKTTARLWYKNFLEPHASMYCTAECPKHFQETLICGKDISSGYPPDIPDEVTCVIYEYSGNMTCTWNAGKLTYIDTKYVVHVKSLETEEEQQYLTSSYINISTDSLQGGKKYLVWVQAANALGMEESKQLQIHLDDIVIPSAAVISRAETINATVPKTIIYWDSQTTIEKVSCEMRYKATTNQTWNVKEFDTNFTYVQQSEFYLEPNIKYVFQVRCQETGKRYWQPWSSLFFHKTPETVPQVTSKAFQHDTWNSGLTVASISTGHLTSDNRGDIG
Kind of data set: Human ELISA IL-23/IL-23R binding inhibition. Particulars: human IL-23 coated, recombinant human IL-23R-Fc chimera. The procedure, abridged:
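Plates coated with human IL-23 at 1 μg/ml overnight at 4° C; serially diluted peptides added with recombinant human IL-23R-Fc at 0.1 μg/ml final, 60 min at RT. Bound receptor detected with anti-human IgG1-HRP and a fluorogenic peroxidase substrate.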
On the technique in general: An ELISA detects its analyte on a solid surface through an enzyme-linked reagent.

Data set [3] has as its target T2, recombinant human IL-23R-Fc chimera (human, UniProt Q5VWK5 24-353, limits assumed).
T2 construct: Recombinant reagent; also called interleukin-23 receptor; not shown: detected with goat anti-hu-IgG1-HRP antibody
T2 sequence (looked up): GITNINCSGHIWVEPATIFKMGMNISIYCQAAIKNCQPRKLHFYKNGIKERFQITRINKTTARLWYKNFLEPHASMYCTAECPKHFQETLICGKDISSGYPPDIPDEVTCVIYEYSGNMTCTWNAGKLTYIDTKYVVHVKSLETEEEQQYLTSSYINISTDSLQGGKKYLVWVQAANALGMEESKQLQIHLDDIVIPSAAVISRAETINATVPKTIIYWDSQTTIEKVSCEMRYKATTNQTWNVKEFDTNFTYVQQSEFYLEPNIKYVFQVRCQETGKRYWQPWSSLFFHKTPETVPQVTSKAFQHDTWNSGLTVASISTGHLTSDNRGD
Briefly: competition ELISA: coated human IL-23, IL-23R-Fc 0.1 ug/ml, peptide titrated. The method, then:
Antagonism of peptide compounds for human interleukin-23 receptor inhibitors, was determined by an ELISA assay.
A 384-well plate was coated with 50 μl/well of human IL-23 at a final concentration of 1 μg/ml and incubated overnight at 4° C. The wells were washed 3 times with 80 μl wash buffer and blocked with 80 μl blocking buffer for 60 minutes at room temperature and washed again. 20 μl of serially diluted test peptides was added to each well and subsequently 20 μl of recombinant human IL-23R-Fc chimera at final concentration of 0.1 μg/ml. The plate was incubated for 60 minutes at room temperature. After the wells were washed, bound IL-23R-Fc was detected with goat anti-hu-lgG1-HRP antibody. Signals were visualized with QuantaBlu Fluorogenic Peroxidase Substrate.

In data set [4] the target is T3, IL-23 receptor on the surface of HEK-Blue IL-23 cells (UniProt Q5VWK5 24-629, limits assumed).
T3 sequence (looked up): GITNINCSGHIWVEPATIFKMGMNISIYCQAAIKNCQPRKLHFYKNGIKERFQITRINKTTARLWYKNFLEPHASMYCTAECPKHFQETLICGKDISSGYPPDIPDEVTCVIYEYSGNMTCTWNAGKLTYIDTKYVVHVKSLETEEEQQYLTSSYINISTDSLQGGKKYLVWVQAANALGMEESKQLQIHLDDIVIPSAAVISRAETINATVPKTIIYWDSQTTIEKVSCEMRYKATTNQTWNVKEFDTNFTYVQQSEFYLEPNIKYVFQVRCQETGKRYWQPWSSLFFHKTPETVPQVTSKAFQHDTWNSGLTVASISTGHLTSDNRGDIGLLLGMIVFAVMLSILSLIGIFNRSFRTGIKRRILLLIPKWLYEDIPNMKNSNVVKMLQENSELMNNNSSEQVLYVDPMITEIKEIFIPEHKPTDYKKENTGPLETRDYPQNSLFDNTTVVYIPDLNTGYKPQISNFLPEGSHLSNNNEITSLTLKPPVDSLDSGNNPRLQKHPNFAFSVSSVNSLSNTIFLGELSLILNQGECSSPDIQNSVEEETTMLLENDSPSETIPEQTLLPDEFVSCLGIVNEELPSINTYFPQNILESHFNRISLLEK
Briefly: cell-based or functional assay.

Usually share remaining stands for what is left of the initial amount, in per cent. What is called IC50 is the point on the concentration scale where inhibition reaches its midpoint. Turning to `COc1ccc(C[C@@H]2NC(=O)[C@H](CCCNC(=N)N)NC(=O)[C@H](CCC(N)=O)NC(=O)[C@H](Cc3c[nH]c4ccccc34)NC(=O)[C@H]([C@@H](C)O)NC(=O)[C@H](CC(N)=O)NC(=O)[C@H](NC(C)=O)CCC(=O)NCCCC[C@@H](C(=O)N[C@@H](CC(N)=O)C(=O)N[C@@H](CC(N)=O)C(N)=O)NC(=O)C(C)(C)NC(=O)[C@H](Cc3cccc4ccccc34)NC2=O)cc1` [compound 11] (Ac-[dE]NTWQRY(Me)[1Nal][Aib]KNN-NH2; lactam 1-10), in data set [1], the “FaSSIF 0 (min), remaining percentage of peptide compound” value (shortened to “FaSSIF 0 (min), remaining percentage”) is 100%; the fraction remaining at 1 h, 1 μM is 4%; the share remaining at 2 h, 1 μM was 7%; the share remaining at 4 h, 1 μM is 2%. Further, the IC50 in data set [2] came out at 9280 nM.
Turning to `COc1ccc(C[C@@H]2NC(=O)[C@H](CCCNC(=N)N)NC(=O)[C@H](CCC(N)=O)NC(=O)[C@H](Cc3c[nH]c4ccccc34)NC(=O)[C@H]([C@@H](C)O)NC(=O)[C@H](CC(N)=O)NC(=O)[C@H](NC(C)=O)CC(=O)NCCC[C@@H](C(=O)N[C@@H](CC(N)=O)C(=O)N[C@@H](CC(N)=O)C(N)=O)NC(=O)C(C)(C)NC(=O)[C@H](Cc3ccc4ccccc4c3)NC2=O)cc1` [compound 13] (Ac-[dD]NTWQRY(Me)[2Nal][Aib][Orn]NN-NH2; lactam 1-10), in data set [1], the “FaSSIF 0 (min), remaining percentage” value is reported as 100%; the amount remaining at 1 h, 1 μM is 2%; the share remaining at 2 h, 1 μM is 0%; the share remaining at 4 h, 1 μM was 3%. Besides, the 50% inhibitory concentration (IC50) on human IL-23R was 6.24 nM. Besides, the IC50 in data set [2] stood at 1150 nM.
Take `COc1ccc(C[C@@H]2NC(=O)C(C)(C)NC(=O)[C@H](CCC(N)=O)NC(=O)[C@H](Cc3c[nH]c4ccccc34)NC(=O)[C@H]([C@@H](C)O)NC(=O)[C@H](CC(N)=O)NC(=O)[C@H](NC(C)=O)CCCCNC(=O)C[C@@H](C(=O)N[C@@H](CC(N)=O)C(=O)N[C@@H](CC(N)=O)C(N)=O)NC(=O)C(C)(C)NC(=O)[C@H](Cc3cccc4ccccc34)NC2=O)cc1` [compound 21] (Ac-[dK]NTWQ[Aib]Y(Me)[1Nal][Aib]DNN-NH2; lactam 1-10): in data set [1], the “FaSSIF 0 (min), remaining percentage” value is on record as 100%; the fraction remaining at 1 h, 1 μM was 96%; the share remaining at 2 h, 1 μM was 98%; the fraction remaining at 4 h, 1 μM was 95%. In addition, on human IL-23R, the IC50 came out at 16.9 nM. In data set [2], the concentration for half-maximal inhibition (IC50) was determined as 7500 nM.
On to `COc1ccc(C[C@@H]2NC(=O)[C@H](CCCNC(=N)N)NC(=O)[C@H](CCC(N)=O)NC(=O)[C@H](Cc3c[nH]c4ccccc34)NC(=O)[C@H]([C@@H](C)O)NC(=O)[C@H](CC(N)=O)NC(=O)[C@H](NC(C)=O)CCCCNC(=O)C[C@@H](C(=O)N[C@@H](CC(N)=O)C(=O)N[C@@H](CC(N)=O)C(N)=O)NC(=O)[C@H](CCCNC(N)=O)NC(=O)[C@H](Cc3cccc4ccccc34)NC2=O)cc1` [compound 18] (Ac-[dK]NTWQRY(Me)[1Nal][Cit]DNN-NH2; lactam 1-10), for which, in data set [1], the “FaSSIF 0 (min), remaining percentage” value is 100%; the fraction remaining at 1 h, 1 μM is 8%; the share remaining at 4 h, 1 μM was 11%. In addition, on human IL-23R, the IC50 is 11.7 nM. The IC50 in data set [2] turned out to be 10000 nM.
With Ac-[dK]NTWQRY[2Nal][Aib]DNN-NH2 (lactam 1-10, synthetic macrolactam) [peptide compound SEQ ID NO: 4], in data set [3], the concentration for half-maximal inhibition (IC50) amounted to 1.59 nM. The “Inhibition of IL-23 induced pSTAT3 (IC50 nM)” value (“Inhibition” for short) in data set [4] was 339 nM.

B1: peptide compound SEQ ID NO: 9 (peptide)
peptide: Ac-KNTWQR[Tyr(Me)″][1Nal][Aib]DNN-NH2
modifications: lactam 1-10
SMILES: COc1ccc(C[C@@H]2NC(=O)[C@H](CCCNC(=N)N)NC(=O)[C@H](CCC(N)=O)NC(=O)[C@H](Cc3c[nH]c4ccccc34)NC(=O)[C@H]([C@@H](C)O)NC(=O)[C@H](CC(N)=O)NC(=O)[C@@H](NC(C)=O)CCCCNC(=O)C[C@@H](C(=O)N[C@@H](CC(N)=O)C(=O)N[C@@H](CC(N)=O)C(N)=O)NC(=O)C(C)(C)NC(=O)[C@H](Cc3cccc4ccccc34)NC2=O)cc1
notes: synthetic macrolactam
As to B1, in data set [3], the IC50 is 3.55 nM. Besides, in data set [4], the “Inhibition” value amounted to 1610 nM.

B2: peptide compound SEQ ID NO: 28 (peptide)
peptide: Ac-[dK]NTWQR[Tyr(Me)″][2Nal]K(Ac)DNN-NH2
modifications: lactam 1-10
SMILES: COc1ccc(C[C@@H]2NC(=O)[C@H](CCCNC(=N)N)NC(=O)[C@H](CCC(N)=O)NC(=O)[C@H](Cc3c[nH]c4ccccc34)NC(=O)[C@H]([C@@H](C)O)NC(=O)[C@H](CC(N)=O)NC(=O)[C@H](NC(C)=O)CCCCNC(=O)C[C@@H](C(=O)N[C@@H](CC(N)=O)C(=O)N[C@@H](CC(N)=O)C(N)=O)NC(=O)[C@H](CCCCNC(C)=O)NC(=O)[C@H](Cc3ccc4ccccc4c3)NC2=O)cc1
notes: synthetic macrolactam
For B2, the IC50 in data set [3] is 9.03 nM. Besides, the “Inhibition” value in data set [4] came out at 2210 nM.
